Test results reported in US20100035755A1, “METHOD OF CONTROLLING WEEDS IN A TURF GRASS BY USING SULFONYLUREA COMPOUNDS” (Moghu Research Center Ltd., priority 2008, published 2010).

Columns and labels:
Perennial rye grass = experiment: Turf grass selectivity, greenhouse pot test; format: in vivo
Text: (§1) Turf mats of Zoysia grass, bentgrass, Kentucky bluegrass, or perennial rye grass known as cool season turfgrass or western grass were purchased and cut into a piece having 10 cm×20 cm size. Then, each piece was transplanted in a rectangular plastic pot (surface area of 300 cm^2) in which sandy loam and mixed top soil (Boo-Nong Top Soil No. 3, for horticultural use) are filled in 1:1 ratio. After the transplantation, the grasses were cut once a week to maintain the blade height at 0.5-1.0 cm and cultivated for one month in a green house of which temperature was kept at 25˜30° C. for daytime and 15˜25° C. for nighttime, respectively. Then, the ‘test chemical’ of the above Examples 1 and 2 or ‘control chemical’ was applied thereto in an amount of 400, 200, 100, 50, 25, 12, 6, 3 g ai/ha. As a “control chemical”, pyrazolsulfuron ethyl wettable agent (manufactured by Dongbu Fine Chemicals; herein after, referred to as ‘control chemical No. 1’) and flazasulfuron (manufactured by Dongbu HiTek; herein after, referred to as ‘control chemical No. 2’), both sulfonylurea herbicides for a turf grass, were used. Application was carried out by using a track sprayer (R&D Sprayer, USA) equipped with Teejet 8002 nozzle (Spraying Systems Co., USA), and the application amount was adjusted to 2,000 L/ha, which is a typical application amount for a golf course in Korea. Application solution was prepared by diluting the “test chemical” or the “control chemical” with tap water. […] The test was repeated three times in a random arrangement and the results are given in average value of each test (see Table 2 below).

Zoysia japonica = experiment: Turf grass selectivity, greenhouse pot test; format: in vivo; details: for phytotoxicity (visual assessment 0-10): Zoysia japonica
Text: as §1

Bentgrass = experiment: Turf grass selectivity, greenhouse pot test; format: in vivo, Agrostris palustris
Text: as §1

Kentucky bluegrass = experiment: Turf grass selectivity, greenhouse pot test; format: in vivo, Poa pratensis
Text: as §1

Digitaria sanguinalis = experiment: Weed spectrum, greenhouse pot test; format: in vivo; details: for efficacy (0-100 scale): two weeks after application
Text: (§2) To a rectangular plastic pot (surface area of 300 cm^2) in which sandy loam and mixed top soil (Boo-Nong Top Soil No. 3, for horticultural use) are filled in 1:1 ratio, eight different kinds of weed seeds including Poa annua and Digitaria sanguinalis as poaceae weed, Cyperus amuricus as cyperaceae weeds and Trifolium repens, Kummerowia striata, fleabane, Veronica officinalis and Portulaca oleracea as broadleaf weeds were sewn (50 to 100 seeds per each weed). These weeds are representative examples of the weeds which typically thrive in a turf grass field.
(§3) The pot was kept in a greenhouse which was maintained at 25˜30° C. for daytime and 15˜25° C. for nighttime, respectively, and irrigation was carried out regularly. Fourteen days after seeding, when the turf grass and the weeds reached approximately at three-leaf stage, the weed seeds were again sewn in separate two pots or “Test chemical” and “Control chemical” were applied in the same manner as the method described above. In this regard, when plants were cultivated for two weeks and then the chemical application was carried out, it is designated as “post-emergence” treatment. On the other than, when the seeding was carried right before the chemical application, it is designated as “pre-emergence” treatment. Preparation of a chemical solution, application method, etc. are the same as above described for evaluation of turf grass selectivity. Two weeks after the chemical application, efficacy of the chemicals for each type of the weeds was evaluated (visual evaluation) based on 0 to 100 scale (i.e., 0 indicates no efficacy and 100 indicates complete weed control).

Veronica officinalis = experiment: Weed spectrum, greenhouse pot test; format: in vivo; details: two weeks after application
Text: as §2, §3

Dandelion = experiment: Weed spectrum, greenhouse pot test; format: in vivo; details: two weeks after application

## COc1nc(C)nc(NC(=O)NS(=O)(=O)c2cscc2C2(CF)OCCO2)n1 [Example 2, 3-(2-fluoromethyl-1,3-dioxalan-2-yl)-N-[(4-methoxy-6-methyltriazin-2-yl)aminocarbonyl]4-thiophene sulfonamide]
Perennial rye grass; 3 g ai/ha, 2 weeks
  phytotoxicity (visual assessment 0-10): 3
Perennial rye grass; 3 g ai/ha, 4 weeks
  phytotoxicity (visual assessment 0-10): 1
Perennial rye grass; 6 g ai/ha, 2 weeks
  phytotoxicity (visual assessment 0-10): 5
Perennial rye grass; 6 g ai/ha, 4 weeks
  phytotoxicity (visual assessment 0-10): 3
Perennial rye grass; 12 g ai/ha, 2 weeks
  phytotoxicity (visual assessment 0-10): 7
Perennial rye grass; 12 g ai/ha, 4 weeks
  phytotoxicity (visual assessment 0-10): 5
Perennial rye grass; 25 g ai/ha, 2 weeks
  phytotoxicity (visual assessment 0-10): 10
Perennial rye grass; 25 g ai/ha, 4 weeks
  phytotoxicity (visual assessment 0-10): 10
Perennial rye grass; 50 g ai/ha, 2 weeks
  phytotoxicity (visual assessment 0-10): 10
Perennial rye grass; 50 g ai/ha, 4 weeks
  phytotoxicity (visual assessment 0-10): 10
Perennial rye grass; 100 g ai/ha, 2 weeks
  phytotoxicity (visual assessment 0-10): 10
Perennial rye grass; 100 g ai/ha, 4 weeks
  phytotoxicity (visual assessment 0-10): 10
Perennial rye grass; 200 g ai/ha, 2 weeks
  phytotoxicity (visual assessment 0-10): 10
Perennial rye grass; 200 g ai/ha, 4 weeks
  phytotoxicity (visual assessment 0-10): 10
Perennial rye grass; 400 g ai/ha, 2 weeks
  phytotoxicity (visual assessment 0-10): 10
Perennial rye grass; 400 g ai/ha, 4 weeks
  phytotoxicity (visual assessment 0-10): 10
Zoysia japonica; 100 g ai/ha or less
  safety to Zoysia japonica: high safety
Zoysia japonica; 3 g ai/ha, 2 weeks
  phytotoxicity (visual assessment 0-10): 0
Zoysia japonica; 3 g ai/ha, 4 weeks
  phytotoxicity (visual assessment 0-10): 0
Zoysia japonica; 6 g ai/ha, 2 weeks
  phytotoxicity (visual assessment 0-10): 0
Zoysia japonica; 6 g ai/ha, 4 weeks
  phytotoxicity (visual assessment 0-10): 0
Zoysia japonica; 12 g ai/ha, 2 weeks
  phytotoxicity (visual assessment 0-10): 0
Zoysia japonica; 12 g ai/ha, 4 weeks
  phytotoxicity (visual assessment 0-10): 0
Zoysia japonica; 25 g ai/ha, 2 weeks
  phytotoxicity (visual assessment 0-10): 0
Zoysia japonica; 25 g ai/ha, 4 weeks
  phytotoxicity (visual assessment 0-10): 0
Zoysia japonica; 50 g ai/ha, 2 weeks
  phytotoxicity (visual assessment 0-10): 0
Zoysia japonica; 50 g ai/ha, 4 weeks
  phytotoxicity (visual assessment 0-10): 0
Zoysia japonica; 100 g ai/ha, 2 weeks
  phytotoxicity (visual assessment 0-10): 1
Zoysia japonica; 100 g ai/ha, 4 weeks
  phytotoxicity (visual assessment 0-10): 0
Zoysia japonica; 200 g ai/ha, 2 weeks
  phytotoxicity (visual assessment 0-10): 2
Zoysia japonica; 200 g ai/ha, 4 weeks
  phytotoxicity (visual assessment 0-10): 1
Zoysia japonica; 400 g ai/ha, 2 weeks
  phytotoxicity (visual assessment 0-10): 4
Zoysia japonica; 400 g ai/ha, 4 weeks
  phytotoxicity (visual assessment 0-10): 3
Bentgrass; 3 g ai/ha, 2 weeks
  phytotoxicity (visual assessment 0-10): 3
Bentgrass; 3 g ai/ha, 4 weeks
  phytotoxicity (visual assessment 0-10): 1
Bentgrass; 6 g ai/ha, 2 weeks
  phytotoxicity (visual assessment 0-10): 5
Bentgrass; 6 g ai/ha, 4 weeks
  phytotoxicity (visual assessment 0-10): 3
Bentgrass; 12 g ai/ha, 2 weeks
  phytotoxicity (visual assessment 0-10): 7
Bentgrass; 12 g ai/ha, 4 weeks
  phytotoxicity (visual assessment 0-10): 5
Bentgrass; 25 g ai/ha, 2 weeks
  phytotoxicity (visual assessment 0-10): 10
Bentgrass; 25 g ai/ha, 4 weeks
  phytotoxicity (visual assessment 0-10): 10
Bentgrass; 50 g ai/ha, 2 weeks
  phytotoxicity (visual assessment 0-10): 10
Bentgrass; 50 g ai/ha, 4 weeks
  phytotoxicity (visual assessment 0-10): 10
Bentgrass; 100 g ai/ha, 2 weeks
  phytotoxicity (visual assessment 0-10): 10
Bentgrass; 100 g ai/ha, 4 weeks
  phytotoxicity (visual assessment 0-10): 10
Bentgrass; 200 g ai/ha, 2 weeks
  phytotoxicity (visual assessment 0-10): 10
Bentgrass; 200 g ai/ha, 4 weeks
  phytotoxicity (visual assessment 0-10): 10
Bentgrass; 400 g ai/ha, 2 weeks
  phytotoxicity (visual assessment 0-10): 10
Bentgrass; 400 g ai/ha, 4 weeks
  phytotoxicity (visual assessment 0-10): 10
Kentucky bluegrass; 3 g ai/ha, 2 weeks
  phytotoxicity (visual assessment 0-10): 3
Kentucky bluegrass; 3 g ai/ha, 4 weeks
  phytotoxicity (visual assessment 0-10): 1
Kentucky bluegrass; 6 g ai/ha, 2 weeks
  phytotoxicity (visual assessment 0-10): 5
Kentucky bluegrass; 6 g ai/ha, 4 weeks
  phytotoxicity (visual assessment 0-10): 3
Kentucky bluegrass; 12 g ai/ha, 2 weeks
  phytotoxicity (visual assessment 0-10): 7
Kentucky bluegrass; 12 g ai/ha, 4 weeks
  phytotoxicity (visual assessment 0-10): 5
Kentucky bluegrass; 25 g ai/ha, 2 weeks
  phytotoxicity (visual assessment 0-10): 10
Kentucky bluegrass; 25 g ai/ha, 4 weeks
  phytotoxicity (visual assessment 0-10): 10
Kentucky bluegrass; 50 g ai/ha, 2 weeks
  phytotoxicity (visual assessment 0-10): 10
Kentucky bluegrass; 50 g ai/ha, 4 weeks
  phytotoxicity (visual assessment 0-10): 10
Kentucky bluegrass; 100 g ai/ha, 2 weeks
  phytotoxicity (visual assessment 0-10): 10
Kentucky bluegrass; 100 g ai/ha, 4 weeks
  phytotoxicity (visual assessment 0-10): 10
Kentucky bluegrass; 200 g ai/ha, 2 weeks
  phytotoxicity (visual assessment 0-10): 10
Kentucky bluegrass; 200 g ai/ha, 4 weeks
  phytotoxicity (visual assessment 0-10): 10
Kentucky bluegrass; 400 g ai/ha, 2 weeks
  phytotoxicity (visual assessment 0-10): 10
Kentucky bluegrass; 400 g ai/ha, 4 weeks
  phytotoxicity (visual assessment 0-10): 10
Digitaria sanguinalis; 50 to 100 g/ha
  weed controlled: at least 90%
Digitaria sanguinalis; Post-emergence, 12 g ai/ha
  efficacy (0-100 scale): 40
Digitaria sanguinalis; Post-emergence, 25 g ai/ha
  efficacy (0-100 scale): 70
Digitaria sanguinalis; Post-emergence, 50 g ai/ha
  efficacy (0-100 scale): 90
Digitaria sanguinalis; Post-emergence, 100 g ai/ha
  efficacy (0-100 scale): 100
Digitaria sanguinalis; Pre-emergence, 12 g ai/ha
  efficacy (0-100 scale): 95
Digitaria sanguinalis; Pre-emergence, 25 g ai/ha
  efficacy (0-100 scale): 95
Digitaria sanguinalis; Pre-emergence, 50 g ai/ha
  efficacy (0-100 scale): 100
Digitaria sanguinalis; Pre-emergence, 100 g ai/ha
  efficacy (0-100 scale): 100
Veronica officinalis; Post-emergence, 12 g ai/ha
  efficacy (0-100 scale): 20
Veronica officinalis; Post-emergence, 25 g ai/ha
  efficacy (0-100 scale): 20
Veronica officinalis; Post-emergence, 50 g ai/ha
  efficacy (0-100 scale): 20
Veronica officinalis; Post-emergence, 100 g ai/ha
  efficacy (0-100 scale): 20
Veronica officinalis; Pre-emergence, 12 g ai/ha
  efficacy (0-100 scale): 30
Veronica officinalis; Pre-emergence, 25 g ai/ha
  efficacy (0-100 scale): 30
Veronica officinalis; Pre-emergence, 50 g ai/ha
  efficacy (0-100 scale): 40
Veronica officinalis; Pre-emergence, 100 g ai/ha
  efficacy (0-100 scale): 50
Dandelion; Post-emergence, 12 g ai/ha
  efficacy (0-100 scale): 90
Dandelion; Post-emergence, 25 g ai/ha
  efficacy (0-100 scale): 90
Dandelion; Post-emergence, 50 g ai/ha
  efficacy (0-100 scale): 100
Dandelion; Post-emergence, 100 g ai/ha
  efficacy (0-100 scale): 100
Dandelion; Pre-emergence, 12 g ai/ha
  efficacy (0-100 scale): 90
Dandelion; Pre-emergence, 25 g ai/ha
  efficacy (0-100 scale): 90
Dandelion; Pre-emergence, 50 g ai/ha
  efficacy (0-100 scale): 100
Dandelion; Pre-emergence, 100 g ai/ha
  efficacy (0-100 scale): 100
